We go through 3 molecules from patent US20090076141A1, “Use of Propofol Prodrugs for Treating Neuropathic Pain” (XenoPort, Inc., priority 2007, published 2009).

The conditions of data set [1]: orally administered as homogeneous liquid suspension, relative to equivalent intravenous dose of propofol; cited from earlier work.
The conditions of data set [2]: oral dosing, rats; cited from earlier work.
The test system of a further data set is rats. Briefly: Acute toxicity study, single oral dose in rats. Format: in vivo. How it is done:
Acute toxicity studies in rats were undertaken to assess the tolerance of a single oral dose of compound (2) formulated in water. […] Complete recovery from hypoactivity, sedation, and anesthesia occurred in all rats within about 8 hours after dose. Doses above about 1552 mg-eq/kg (about 800 mg-eq/kg of propofol) were not tested.

Another data set has as its system male rats. Briefly: Multiple dose study in rats (five days, once a day). As to conditions: oral gavage once a day for five days, 49 to 97 mg-eq/kg. Format: in vivo. How it is done:
Multiple dose studies in rats were performed by orally administering compound (2) formulated in water to groups of male rats at doses of 49 mg-eq/kg to 97 mg-eq/kg for a period of five days, by oral gavages administered once a day.

In another data set the test system is male beagle dogs. Description: Acute toxicity study, single oral dose in dogs. In kind it is in vivo. How it is done:
Acute toxicity studies were also performed by orally administering a single dose of compound (2) formulated in water to groups of male beagle dogs at doses from about 25 mg-eq/kg to about 150 mg-eq/kg.

For data set [3] the following is noted: cited from earlier work.
[4] abbreviates: rats, single oral dose about 49 to about 388 mg-eq/kg.
Where [5] appears, read: rats, single oral dose about 582 to about 970 mg-eq/kg.
[6] abbreviates: rats, single oral dose about 1164 to about 1552 mg-eq/kg.

For `CC(C)c1cccc(C(C)C)c1O` [propofol, 2,6-diisopropylphenol], in data set [1], the oral bioavailability entry is recorded as “less than 5%”. Besides, the “administered drug undergoing first pass metabolism” value in data set [2] is reported as “approximately 90%”.

Take `CC(C)c1cccc(C(C)C)c1OC(=O)OC[C@H](N)C(=O)O` (stereo in doubt) [Compound (2), 2-amino-3-(2,6-diisopropyl-phenoxycarbonyloxy)-propanoic acid]: the “complete recovery from hypoactivity, sedation, and anesthesia, time after dose” value in the data set on rats (all rats, single oral dose) is no more than 8 h. The “tolerance of a single oral dose” value with rats (rats, formulated in water, about 49 to about 1552 mg-eq/kg of administered compound) is listed as “well tolerated”. In the data set on rats (setting [4]), the “onset of transient hypoactivity after dose” value was no more than 30 min and the “transient hypoactivity maintained, time post dose” value is given as “up to 4 hours”. Besides, in the data set on rats (setting [5]), the “onset of sedation after dose” value is no more than 1.5 h and the “sedation lasted, time post dose” value is “up to 4 hours”. For the same molecule, in the data set on rats (setting [6]), the “anesthesia lasted, time post dose” value is “up to 2 hours” and the “onset of anesthesia after dose” value was no more than 1 h. Also, in the data set with male rats, the adverse effects entry is reported as “No adverse effects were observed”, the sedation or anesthesia entry is “No sedation or anesthesia was observed” and the “tolerance of multiple doses” value is on record as “well tolerated”. In addition, the “tolerance of a single oral dose” value with male beagle dogs (formulated in water, about 25 to about 150 mg-eq/kg) is listed as “well tolerated”. For the same molecule, the sedation or anesthesia result in the data set on male beagle dogs (single oral dose about 25 to about 150 mg-eq/kg) is “No sedation or anesthesia was observed”.

As for `CC(C)c1cccc(C(C)C)c1OCOP(=O)(O)O` [O-phosphonooxymethyl propofol], in data set [3] (oral administration), the “time to maximum propofol concentration” value was “about 30 minutes”. Besides, the propofol oral bioavailability in data set [3] (rats, relative to equivalent intravenous dose of propofol) is 22.2%.
